Earlier results in patent publication US9211338B2, “Composition and method for treating HPV” (Universite Libre de Bruxelles, priority 2011, dated 2015).
Where two headings read alike, the source gives them in different places.

Assays:
[1] = tested on: HPV
[2] = tested on: HPV-positive cells; settings: in vitro

Nc1ccn(C[C@@H](CO)OCP(=O)(O)O)c(=O)n1 [cidofovir]
clinical outcome ([1]; intravenous (systemic), disseminated papillomatosis): stabilization of disseminated papillomatosis
clinical outcome ([1]; local intratumor injections, patients with papillomatous lesions): complete regression of the tumor
inhibition of cell proliferation [2]: concentration- and time-dependent inhibition of cell proliferation
